Experiments:
[1] = target: T1, porcine pancreatic lipase (PPL) (Sus scrofa, UniProt P00591); test: In vitro digestion in simulated intestinal fluid (SIF), pH-stat; type: in vitro ADME; conditions: SIF alone; emulsion with 200 mg fat; pH 6.8, 37° C.
T1 construct: by porcine pancreatic lipase (from pancreatin); from tissue; host or cells: pancreatin (pancreatic extract)
T1 sequence (P00591 1-450): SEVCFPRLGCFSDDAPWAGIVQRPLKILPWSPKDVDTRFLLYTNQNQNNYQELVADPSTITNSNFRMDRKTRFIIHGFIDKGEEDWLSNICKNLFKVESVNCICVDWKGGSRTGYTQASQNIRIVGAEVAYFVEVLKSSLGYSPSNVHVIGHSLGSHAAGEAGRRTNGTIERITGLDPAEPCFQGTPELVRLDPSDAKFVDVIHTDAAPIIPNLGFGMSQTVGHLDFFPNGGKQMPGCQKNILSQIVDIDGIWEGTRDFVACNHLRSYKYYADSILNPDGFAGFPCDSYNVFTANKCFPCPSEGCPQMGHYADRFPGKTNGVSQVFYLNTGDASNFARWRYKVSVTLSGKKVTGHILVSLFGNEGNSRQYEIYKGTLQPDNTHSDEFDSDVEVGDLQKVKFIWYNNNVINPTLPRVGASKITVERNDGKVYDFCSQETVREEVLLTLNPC
T1 sequence (P02703 23-112 partner): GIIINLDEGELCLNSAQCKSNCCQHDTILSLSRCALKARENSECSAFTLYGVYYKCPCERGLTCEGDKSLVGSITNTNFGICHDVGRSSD
Description: (§1) An emulsion was then created using an ultrasonic probe homogeniser.

[2] = system: rabbit gastric lipase (RGL) followed by porcine pancreatic lipase (PPL); test: Sequential in vitro digestion, simulated gastric fluid (SGF) then simulated intestinal fluid (SIF); type: in vitro ADME
Description: as §1

Human primary myoblasts = test: Muscle stem cell commitment (MyoD+ cells); type: cell-based; conditions: donors 8 and 4; 96 hours culture; FIG. 3
Protocol: Human primary myoblasts from two different donors (donor 8 & donor 4) were seeded in 384 well plates at a density of 1'000 cells per well in skeletal muscle growth medium (SKM-M, AMSbio). For treatment, compounds were directly added to the myoblast cultures 16 hours after initial plating. All cultures were then grown for 96 hours. Cells were stained for Pax7 and MyoD expression using antibodies directed against Pax7 and MyoD and counterstained with Hoechst 33342 to visualize cell nuclei. […] Image acquisition was performed using the ImageXpress (Molecular Devices) platform. Custom module analysis based on Multi-Wavelength Cell Scoring of the MetaXpress software was used for quantification. For each condition, the total number of cells was determined to evaluate compound toxicity, and the number of MyoD+ cells was normalized to the total cell number in order to evaluate the proportion of this population. *, **, ***, **** indicates difference from the control (DMSO 1%), One-way ANOVA, with p<0.05, p<0.01, p<0.001, p<0.0001, respectively. Data are presented as Mean +/− SEM

| Initial rate of lipolysis [1] [µmol/min] | Initial lipolysis rate in SIF ([2]; SGF-SIF sequential digestion, measured in SIF compartment) [µmol/min] | Hydrolysis in the stomach (gastric lipolysis), in words ([2]; gastric compartment, inferred from SGF-SIF vs SIF) | Lipolysis by gastric lipase ([2]; indicated by decreased total fatty acid release in SIF after RGL in SGF) [%] | SMILES | Myogenic commitment (MyoD+ cells normalized to total cell number) (Human primary myoblasts) |
| --- | --- | --- | --- | --- | --- |
| 223 ± 59 | 44.1 ± 8.8 | extensive hydrolysis in the stomach | −60 | CCCC(=O)OCC(COC(=O)CCC)OC(=O)CCC [tributyrin] | – |
| – | – | – | – | CCCC(=O)[O-].[Na+] [sodium butyrate] | promotes muscle stem cell differention |
